Assay [1] in a line: phenyl-p-benzoquinone writhing assay (analgesic activity). The assay is classed as in vivo, male mice (Charles River, CD-1). The settings on record: Mus musculus, sc; mice, 20 mg/kg, s.c.; read-out: % Inhibition of writhing at a screening dose of 20 mg/kg, s.c. How it is done:
The compounds of this invention are useful as analgesic agents due to their ability to alleviate pain in mammals. The procedure employed to determine analgetic utility is a modification of the phenyl-p-benzoquinone writhing assay in mice, a standard assay for analgesia [Proc. Soc. Exptl. Bio. Med., 95, 729 (1957)]. Pursuant to the modified procedure phenyl-p-benzoquinone (Eastman, 12.5 mg) is dissolved in 5 ml of 95% ethanol and the solution is diluted to a total volume of 100 ml with distilled water. The solution is administered to the subject mice intraperitoneally at a dose of 10 ml per kg of body weight. A characteristic "writhe"an inward rotation of one or more feet with twisting and turning of the trunk, drawing in of the abdominal wall, lordosis and arching of the back, is produced.
A total of 28 male mice (Charles River, CD-1), weighing 18 to 30 grams, are employed for a time response. The subject animals receive food and water ad libitum. Test compounds are dissolved in distilled water, or suspended in distilled water containing one drop of a suitable surfactant, such as Tween-80.
Four groups of five animals (20 animals) are given the test compound subcutaneously (s.c.) or orally (p.o.) at 15, 30, 45 and 60 minutes prior to administration of the phenyl-p-quinone. A control group (2 animals per group) receive an equal volume of the vehicle. After the administration of the phenyl-p-quinone, the mice are place separately in one liter beakers, and after five minutes, are observed for ten minutes. The number of writhes for each animal is recorded. The following formula is used to compute the percent inhibition: [formula]
The time period with the greatest percent of inhibition is considered the peak time.
A general note: An intraperitoneal irritant provokes the stretching counted in writhing tests.

The nature of assay [2]: antihypertensive activity, indirect tail cuff method (SHR). The assay is classed as in vivo, spontaneous hypertensive rat. The following applies: treated three days, drop measured on third day, decrease in mean arterial blood pressure. How it is done: The compounds of this invention are also useful as antihypertensive agents due to their ability to depress blood pressure in mammals. Antihypertensive activity is measured in the spontaneous hypertensive rat by the indirect tail cuff method described in "Methods in Pharmacology", A. Schwartz, Ed., Vol. I, Appleton-Century Crofts, New York, N.Y., 1971, p. 135. In this procedure a group of five animals is treated orally for three days with the test compound in relation to a control group of the same number. The drop in blood pressure is measured on the third day following administration. The antihypertensive activities of representative compounds, expressed as a decrease in mean arterial blood pressure (in mm Hg), are given in Table 3 along with the activity of a standard compound.

Molecules are shown by their SMILES. Structures can show the parent of a compound that is named as a salt.

Take `Fc1ccc2c(CCCN3[C@@H]4CC[C@H]3C[C@H](Oc3c(F)c(F)c(F)c(F)c3F)C4)noc2c1` [(EXO)-8-[3-(6-FLUORO-1,2-BENZISOXAZOL-3-YL)PROPYL]-3-(2,3,4,5,6-PENTAFLUOROPHENOXY)-8-AZABICYCLO[3.2.1]OCTANE HYDROCHLORIDE]: the inhibition in vivo at 20 mg/kg in assay [1] amounted to 49%. The “mm dec. in BP at 50 mg/kg p.o.” value in assay [2] turned out to be 48 mm.

The values above are taken from patent US4861889A, “3-(2,3,4,5,6-pentafluorophenoxy)-8-azabicyclo[3.2.1]octanes” (Hoechst-Roussel Pharmaceuticals, Inc., priority 1988, dated 1989).
